Assay results reported in patent publication US8183272B2, “Indanyl compounds” (Daiichi Sankyo Company, Limited, priority 2008, dated 2012).

Columns and labels:
PTH secretion = assay: Evaluation of PTH secretion promoting activity in rat (blood serum PTH, ELISA); format: in vivo; settings: female F344 rat, oral 3 mg/5 mL/kg, Means ± S.D., n = 3; for Blood Serum PTH (1-84) Concentration, 0 minute: before administration
Procedure: Evaluation of PTH Secretion Promoting Activity in Rat
A 10 to 14-week old female F344 rat (Charles River Japan, Inc.) fasted overnight was anesthetized using ether, and blood serum before the administration was prepared by drawing blood from the jugular vein of the animal. Subsequently, the test compound was orally administered at a dose of 3 mg/5 mL/kg using a solvent (0.5% aqueous methyl cellulose solution containing 5% DMA). Blood was drawn from the jugular vein under ether anesthesia at 5, 15, 30, 60, 120, and 240 minutes after the administration of the test compound, and the blood serum was prepared. The blood serum PTH concentration was measured using rat Intact PTH ELISA kit (manufactured by Immutopics, Inc.).

[1] = molecular target: T1, human calcium-sensing receptor (CaSR) (Homo sapiens, UniProt P41180); assay: Inhibitory activity on calcium-sensing receptor (CaSR) using intracellular calcium increase as an indicator (FLIPR, CHO/hCaSR); format: cell-based; settings: CHO/hCaSR cells; intracellular Ca increase induced by CaCl2; test compound 1.05 to 10,000 nM
T1 construct: expressed in transfected cells; host or cells: CHO cells (CHO/hCaSR)
T1 sequence (P41180 20-1078): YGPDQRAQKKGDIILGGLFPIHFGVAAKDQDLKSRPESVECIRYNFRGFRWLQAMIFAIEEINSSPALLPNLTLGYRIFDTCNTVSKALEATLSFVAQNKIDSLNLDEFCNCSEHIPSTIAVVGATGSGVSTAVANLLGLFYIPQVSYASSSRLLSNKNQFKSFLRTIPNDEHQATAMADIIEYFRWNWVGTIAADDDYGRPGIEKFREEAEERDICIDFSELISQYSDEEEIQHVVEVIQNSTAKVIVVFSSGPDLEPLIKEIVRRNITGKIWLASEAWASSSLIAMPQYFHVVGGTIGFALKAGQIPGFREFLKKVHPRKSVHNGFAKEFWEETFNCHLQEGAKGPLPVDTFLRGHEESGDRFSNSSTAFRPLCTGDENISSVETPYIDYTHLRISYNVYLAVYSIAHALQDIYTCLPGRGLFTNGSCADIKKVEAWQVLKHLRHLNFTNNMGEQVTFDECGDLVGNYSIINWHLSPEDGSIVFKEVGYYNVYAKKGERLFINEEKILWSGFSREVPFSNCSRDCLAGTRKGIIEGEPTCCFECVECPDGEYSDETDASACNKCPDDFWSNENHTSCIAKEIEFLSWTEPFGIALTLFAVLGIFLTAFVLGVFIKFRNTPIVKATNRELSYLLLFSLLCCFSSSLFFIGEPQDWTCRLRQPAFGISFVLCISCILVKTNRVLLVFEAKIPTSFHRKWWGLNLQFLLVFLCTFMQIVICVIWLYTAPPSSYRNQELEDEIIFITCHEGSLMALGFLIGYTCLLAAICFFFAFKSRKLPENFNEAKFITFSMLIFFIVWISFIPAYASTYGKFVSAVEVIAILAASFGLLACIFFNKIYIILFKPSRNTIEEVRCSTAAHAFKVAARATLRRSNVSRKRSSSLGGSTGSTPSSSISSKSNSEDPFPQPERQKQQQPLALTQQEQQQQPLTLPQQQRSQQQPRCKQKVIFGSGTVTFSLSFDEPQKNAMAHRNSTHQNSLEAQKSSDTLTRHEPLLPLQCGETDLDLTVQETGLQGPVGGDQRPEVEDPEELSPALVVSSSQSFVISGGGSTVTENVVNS
Procedure: Evaluation of inhibitory activity on calcium-sensing receptor (CaSR) using intracellular calcium increase as an indicator
The preparation which is prepared by adding CHO/hCaSR to F12 medium (manufactured by Invitrogen) containing 10% fetal bovine serum to have 2×10^5 cells/mL was applied to a 384-well in an amount of 50 μL/well, and then incubated overnight in a CO2 incubator. The culture supernatant was completely removed, the assay buffer (20 mM HEPES, HBSS (Ca and Mg free) containing 2.5 mM probenecid, pH 7.4) containing Calcium 3 (manufactured by Molecular Devices), i.e., a fluorescent intracellular calcium indicator, was added thereto in an amount of 25 μL/well, and the mixture was maintained for 1 hour in a CO2 incubator. Meanwhile, Calcium 3 was prepared according to the protocol enclosed in FLIPR Calcium 3 Assay Kit (manufactured by Molecular Devices). After maintaining it for 1 hour, a solution in which the test compound is prepared to have 2.1 to 20,000 nM (final concentration of 1.05 to 10,000 nM) by an assay buffer was added thereto in an amount of 25 μL/well, and maintained for 15 minutes in a CO2 incubator. Then, the CaCl2 solution prepared to have […] by using the assay buffer was added in an amount of 25 μL/well, and the resulting intracellular Ca increase (i.e., fluorescence intensity) was measured over time using a fluorescence imaging plate reader (FLIPR, manufactured by Molecular Devices). From the data obtained, the difference between the fluorescence intensity before the addition of CaCl2 solution and the maximum fluorescence intensity after the addition of CaCl2 solution was calculated, and the 50% inhibition concentration (IC50) of the test compound was obtained.

IC50 [1]	SMILES	Blood Serum PTH (1-84) Concentration, After 5 minutes (PTH secretion)	Blood Serum PTH (1-84) Concentration, After 15 minutes (PTH secretion)	Blood Serum PTH (1-84) Concentration, After 30 minutes (PTH secretion)	Blood Serum PTH (1-84) Concentration, After 60 minutes (PTH secretion)	Blood Serum PTH (1-84) Concentration, After 120 minutes (PTH secretion)	Blood Serum PTH (1-84) Concentration, After 240 minutes (PTH secretion)	Blood Serum PTH (1-84) Concentration, 0 minute (PTH secretion)
–	Cc1cccc([C@@H](C)OC[C@H](O)CNC(C)(C)CC2Cc3ccccc3C2)c1CCC(=O)O [Example 4, 3-{2-[(1R)-1-{[(2R)-3-{[1-(2,3-Dihydro-1H-inden-2-yl)-2-methylpropan-2-yl]amino}-2-hydroxypropyl]oxy}ethyl]-6-methylphenyl}propanoic acid]	68.2 ± 6.0 pg/mL	489.1 ± 106.0 pg/mL	538.6 ± 155.1 pg/mL	117.0 ± 33.7 pg/mL	108.8 ± 27.4 pg/mL	91.9 ± 24.5 pg/mL	20.5 ± 6.6 pg/mL
≤ 2510 nM	C[C@@H](OC[C@H](O)CNC1(CC2Cc3ccccc3C2)CC1)c1ccccc1CCC(=O)O [Example 14, 3-{2-[(1R)-1-{[(2R)-3-{[1-(2,3-Dihydro-1H-inden-2-ylmethyl)cyclopropyl]amino}-2-hydroxypropyl]oxy}ethyl]phenyl}propanoic acid]	211.6 ± 28.4 pg/mL	471.7 ± 112.8 pg/mL	146.1 ± 45.2 pg/mL	78.9 ± 5.0 pg/mL	81.8 ± 4.9 pg/mL	94.3 ± 15.7 pg/mL	62.8 ± 11.4 pg/mL
